Key:
Assay in all cases: relative viability (nuclei count vs DMSO), 5 days (fraction); higher = more cells survive
IPA-3 + Bortezomib = compound: C1=CC=C2C(=C1)C=CC(=C2SSC3=C(C=CC4=CC=CC=C43)O)O [IPA-3] + CC(C)C[C@H](NC(=O)[C@H](Cc1ccccc1)NC(=O)c1cnccn1)B(O)O [Bortezomib] (partner 0.002 µM)
Procedure, shortened: (§1)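 Cells from lung cancer lines were seeded into 1536-well plates and, one day later, dosed by pin tool. Treatments were either a single drug or a fixed dose of an anchor drug with five library-drug doses (not always all listed) in √10 steps. After 5 days, nuclei were stained in a one-step fixation (final 0.05% Triton X-100, 1% formaldehyde, 1 ug/ml Hoechst) and counted on 4× images, and relative viability is the treated-to-vehicle nuclei ratio, as the median of duplicate plates.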

Doramapimod + Bortezomib = compound: Cc1ccc(-n2nc(C(C)(C)C)cc2NC(=O)Nc2ccc(OCCN3CCOCC3)c3ccccc23)cc1 [Doramapimod] + CC(C)C[C@H](NC(=O)[C@H](Cc1ccccc1)NC(=O)c1cnccn1)B(O)O [Bortezomib] (partner 0.002 µM)
Procedure, shortened: as §1

Doramapimod + Crizotinib = compound: Cc1ccc(-n2nc(C(C)(C)C)cc2NC(=O)Nc2ccc(OCCN3CCOCC3)c3ccccc23)cc1 [Doramapimod] + C[C@@H](Oc1cc(-c2cnn(C3CCNCC3)c2)cnc1N)c1c(Cl)ccc(F)c1Cl [Crizotinib] (partner 1 µM)
Procedure, shortened: as §1

Doramapimod + Dasatinib = compound: Cc1ccc(-n2nc(C(C)(C)C)cc2NC(=O)Nc2ccc(OCCN3CCOCC3)c3ccccc23)cc1 [Doramapimod] + Cc1nc(Nc2ncc(C(=O)Nc3c(C)cccc3Cl)s2)cc(N2CCN(CCO)CC2)n1 [Dasatinib] (partner 0.075 µM)
Procedure, shortened: as §1

| Cell Line | relative viability (IPA-3 + Bortezomib; first compound 0.2 µM) | relative viability (IPA-3 + Bortezomib; first compound 0.6325 µM) | relative viability (IPA-3 + Bortezomib; first compound 2 µM) | relative viability (IPA-3 + Bortezomib; first compound 6.325 µM) | relative viability (IPA-3 + Bortezomib; first compound 20 µM) | relative viability (Doramapimod + Bortezomib; first compound 0.02 µM) | relative viability (Doramapimod + Bortezomib; first compound 0.06325 µM) | relative viability (Doramapimod + Bortezomib; first compound 0.2 µM) | relative viability (Doramapimod + Bortezomib; first compound 0.6325 µM) | relative viability (Doramapimod + Bortezomib; first compound 2 µM) | relative viability (Doramapimod + Crizotinib; first compound 0.02 µM) | relative viability (Doramapimod + Crizotinib; first compound 0.06325 µM) | relative viability (Doramapimod + Crizotinib; first compound 0.2 µM) | relative viability (Doramapimod + Crizotinib; first compound 0.6325 µM) | relative viability (Doramapimod + Crizotinib; first compound 2 µM) | relative viability (Doramapimod + Dasatinib; first compound 0.02 µM) | relative viability (Doramapimod + Dasatinib; first compound 0.06325 µM) | relative viability (Doramapimod + Dasatinib; first compound 0.2 µM) | relative viability (Doramapimod + Dasatinib; first compound 0.6325 µM) | relative viability (Doramapimod + Dasatinib; first compound 2 µM) |
| --- | --- | --- | --- | --- | --- | --- | --- | --- | --- | --- | --- | --- | --- | --- | --- | --- | --- | --- | --- | --- |
| NCI-H1666 | 0.903 | 0.808 | 0.887 | 0.76 | 0.73 | 0.83 | 0.784 | 0.826 | 0.842 | 0.725 | 1.21 | 0.907 | 0.959 | 1.08 | 0.935 | 0.889 | 0.881 | 0.876 | 1.14 | 0.87 |
| NCI-H2023 | 1.19 | 0.9 | 1.05 | 1.17 | 1.11 | 1 | 0.945 | 0.978 | 0.44 | 0.97 | 0.695 | 0.629 | 0.575 | 0.666 | 0.625 | 0.601 | 0.521 | 0.533 | 0.645 | 0.512 |
| NCI-H1755 | 1.02 | 0.905 | 0.946 | 0.997 | 1.08 | 1.03 | 1 | 0.793 | 0.897 | 0.831 | 0.886 | 0.905 | 0.788 | 0.768 | 0.833 | 0.458 | 0.438 | 0.369 | 0.4 | 0.344 |
| NCI-H23 | 1.39 | 0.964 | 1.08 | 1.06 | 0.797 | 1.01 | 1.07 | 1.06 | 1.11 | 1.04 | 0.685 | 0.435 | 0.488 | 0.539 | 0.595 | 0.734 | 0.709 | 0.856 | 0.836 | 0.759 |
| ABC-1 | 0.297 | 0.345 | – | 0.295 | 0.257 | 0.297 | 0.302 | 0.262 | 0.345 | 0.296 | 1.03 | 1.09 | 0.842 | 0.75 | 1.29 | 0.572 | 0.581 | 0.539 | 0.534 | 0.498 |
| 201T | 1.08 | 0.931 | 1.08 | 1.12 | 1.13 | 1.16 | 1.16 | 1.09 | 1.29 | 1.16 | 1.03 | 1.06 | 0.993 | 1.09 | 1.01 | 0.611 | 0.571 | 0.49 | 0.598 | 0.517 |
| NCI-H1734 | 0.973 | 0.812 | 1.03 | 0.995 | 0.87 | 0.845 | 0.859 | 0.766 | 0.966 | 0.724 | 0.665 | 0.639 | 0.589 | 0.659 | 0.495 | 0.443 | 0.405 | 0.426 | 0.509 | 0.39 |
| NCI-H520 | 1.13 | 0.769 | 0.536 | 0.684 | 0.487 | 0.671 | 0.699 | 0.529 | 0.677 | 0.364 | 0.614 | 0.767 | 0.709 | 0.803 | 0.52 | 0.183 | 0.166 | 0.148 | 0.213 | 0.182 |
| NCI-H1650 | 0.223 | 0.193 | 0.186 | 0.283 | 0.27 | 0.232 | 0.23 | 0.194 | 0.191 | 0.189 | 0.969 | 1.02 | 1.13 | 1.04 | 1.02 | 0.366 | 0.294 | 0.338 | 0.402 | 0.217 |
| NCI-H1355 | 1.44 | 1.25 | 1.18 | 1.16 | 1.3 | 1.23 | 1.29 | 1.29 | 1.19 | 1.16 | 0.981 | 1.08 | 1.11 | 1.04 | 1.03 | 0.713 | 0.692 | 0.724 | 0.753 | 0.623 |
| NCI-H1915 | 1.15 | 0.974 | 0.952 | 0.971 | 1.09 | 0.978 | 1.09 | 1.04 | 1.02 | 0.936 | 0.907 | 0.894 | 0.915 | 0.918 | 0.779 | 0.304 | 0.327 | 0.316 | 0.354 | 0.307 |
| BEN | 0.807 | 0.707 | 0.806 | 0.823 | 0.799 | 0.69 | 0.785 | 0.896 | 0.52 | 0.684 | 0.855 | 0.683 | 0.85 | 0.742 | 0.761 | 0.34 | 0.349 | 0.317 | 0.345 | 0.273 |
| NCI-H3122 | 0.994 | 1.01 | 1.03 | 1.13 | 0.938 | 1.04 | 0.983 | 0.949 | 1.07 | 0.91 | 0.268 | 0.267 | 0.223 | 0.256 | 0.266 | 0.762 | 0.779 | 0.78 | 0.936 | 0.727 |
| HOP-62 | 1.09 | 0.858 | 0.722 | 0.701 | 0.93 | 0.594 | 0.97 | 1.15 | 0.468 | 0.703 | 0.888 | 1.02 | 1.12 | 0.597 | 0.968 | 0.618 | 0.705 | 0.633 | 0.843 | 0.594 |
| HCC-366 | 1.36 | 0.996 | 1.04 | 1.08 | 1.25 | 1.02 | 1 | 1.09 | 1.14 | 1.01 | 0.612 | 0.513 | 0.487 | 0.451 | 0.398 | 0.605 | 0.549 | 0.548 | 0.548 | 0.458 |
| NCI-H2347 | 0.916 | 1.01 | 1.12 | 0.937 | 1.3 | – | 0.72 | 1.19 | 1.07 | 0.963 | 0.789 | 0.568 | 0.745 | 0.762 | 0.644 | 0.351 | – | 0.291 | 0.319 | 0.282 |

Source: the supplement of paper PMC10307832
